According to ChEMBL document CHEMBL1201862, “PubChem BioAssay data set” (2004):
Activity calls are given as the source filed them.

Assays:
[1] = molecular target: Activin receptor type-1 (Homo sapiens, UniProt Q04771); experiment: Navigating the Kinome. Panel member name: ACVR1; type: functional
[2] = molecular target: Aryl hydrocarbon receptor (Homo sapiens, UniProt P35869); conditions: Potency;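 also: confirmatory quantitative high-throughput screen measuring activation of the AhR signaling pathway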
Aryl hydrocarbon receptor, sequence (P35869 whole entry, the tested form may be a part): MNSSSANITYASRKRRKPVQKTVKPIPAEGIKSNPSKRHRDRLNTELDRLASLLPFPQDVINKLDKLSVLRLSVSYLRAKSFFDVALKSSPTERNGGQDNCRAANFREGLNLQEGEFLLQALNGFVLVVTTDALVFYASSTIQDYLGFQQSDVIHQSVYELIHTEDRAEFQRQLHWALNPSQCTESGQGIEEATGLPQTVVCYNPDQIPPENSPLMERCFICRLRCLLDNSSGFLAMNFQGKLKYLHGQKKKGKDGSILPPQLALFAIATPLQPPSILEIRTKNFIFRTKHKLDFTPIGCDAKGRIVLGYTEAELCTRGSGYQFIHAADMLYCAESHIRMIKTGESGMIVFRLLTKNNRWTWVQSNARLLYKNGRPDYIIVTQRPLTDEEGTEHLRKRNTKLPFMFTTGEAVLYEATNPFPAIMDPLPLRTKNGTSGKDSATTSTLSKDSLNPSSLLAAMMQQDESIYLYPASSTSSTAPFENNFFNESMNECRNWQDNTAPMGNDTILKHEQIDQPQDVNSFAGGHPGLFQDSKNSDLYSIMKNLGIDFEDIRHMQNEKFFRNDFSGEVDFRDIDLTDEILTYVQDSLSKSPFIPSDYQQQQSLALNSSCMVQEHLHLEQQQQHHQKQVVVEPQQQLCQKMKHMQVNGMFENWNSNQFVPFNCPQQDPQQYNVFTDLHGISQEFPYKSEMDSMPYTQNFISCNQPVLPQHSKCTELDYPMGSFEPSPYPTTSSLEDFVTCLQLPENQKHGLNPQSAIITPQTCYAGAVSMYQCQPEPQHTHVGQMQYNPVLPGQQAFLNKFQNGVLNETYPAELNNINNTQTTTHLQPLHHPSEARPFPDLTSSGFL

[3] = Fluorescence-based cell-based high throughput dose response assay for inhibitors of the interaction of nucleotide-binding oligomerization domain containing 2 (NOD2) and the receptor-interacting serine-threonine kinase 2 (RIPK2).; type: functional; conditions: Homo sapiens
[4] = molecular target: Beta-2 adrenergic receptor (Homo sapiens, UniProt P07550); experiment: beta2AR agonists driving receptor internalization, dose response, cell-based, FAP fluorogen, flow cytometry, cherry pick 1 (AID 588763); type: functional
Beta-2 adrenergic receptor, sequence (P07550 whole entry, the tested form may be a part): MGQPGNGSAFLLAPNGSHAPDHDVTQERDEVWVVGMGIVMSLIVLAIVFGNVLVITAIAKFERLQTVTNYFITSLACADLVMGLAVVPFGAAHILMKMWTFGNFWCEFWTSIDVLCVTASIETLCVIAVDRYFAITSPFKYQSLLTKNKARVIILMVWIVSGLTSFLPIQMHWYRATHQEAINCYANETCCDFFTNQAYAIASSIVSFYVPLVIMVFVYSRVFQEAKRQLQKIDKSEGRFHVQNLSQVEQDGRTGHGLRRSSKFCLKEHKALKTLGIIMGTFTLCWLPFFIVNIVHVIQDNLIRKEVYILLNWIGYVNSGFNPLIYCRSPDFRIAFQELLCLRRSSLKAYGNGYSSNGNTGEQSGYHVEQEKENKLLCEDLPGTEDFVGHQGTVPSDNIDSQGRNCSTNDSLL

[5] = molecular target: Photoreceptor-specific nuclear receptor (Homo sapiens, UniProt Q9Y5X4); type: functional, cell-based;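 also: CHO-S cells with Gal4-NCOR and VP16-NR2E3 two-hybrid luciferase reporter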
Photoreceptor-specific nuclear receptor, sequence (Q9Y5X4 whole entry, the tested form may be a part): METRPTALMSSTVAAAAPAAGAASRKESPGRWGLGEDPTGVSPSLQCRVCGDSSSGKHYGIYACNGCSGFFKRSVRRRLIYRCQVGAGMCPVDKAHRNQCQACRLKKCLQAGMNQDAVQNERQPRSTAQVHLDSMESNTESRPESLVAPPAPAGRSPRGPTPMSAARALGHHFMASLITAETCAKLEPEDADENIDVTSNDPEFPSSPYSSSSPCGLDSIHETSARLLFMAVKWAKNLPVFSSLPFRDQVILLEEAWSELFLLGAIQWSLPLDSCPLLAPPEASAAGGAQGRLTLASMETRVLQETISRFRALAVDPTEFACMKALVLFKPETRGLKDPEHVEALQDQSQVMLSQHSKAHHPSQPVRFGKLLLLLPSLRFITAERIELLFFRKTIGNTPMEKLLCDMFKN

[6] = molecular target: Melanin-concentrating hormone receptor 1 (Homo sapiens, UniProt Q99705); experiment: Late-stage fluorescence-based counterscreen for antagonists of the G-protein coupled receptor 7 (GPR7): cell-based dose response assay to identify antagonists of the melanin-concentrating hormone receptor 1 (MCHR1) Set 5.; type: functional
Melanin-concentrating hormone receptor 1, sequence (Q99705 whole entry): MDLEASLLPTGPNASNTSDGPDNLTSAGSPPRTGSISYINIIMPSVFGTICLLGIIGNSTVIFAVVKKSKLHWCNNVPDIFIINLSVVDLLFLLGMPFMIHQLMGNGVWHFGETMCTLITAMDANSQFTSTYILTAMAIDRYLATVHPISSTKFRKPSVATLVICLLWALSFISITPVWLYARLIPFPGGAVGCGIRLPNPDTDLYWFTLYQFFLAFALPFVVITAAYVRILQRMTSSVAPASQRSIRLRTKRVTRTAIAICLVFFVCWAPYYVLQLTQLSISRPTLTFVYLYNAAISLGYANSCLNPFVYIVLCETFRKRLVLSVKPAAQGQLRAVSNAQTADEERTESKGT

[7] = molecular target: Neuropeptides B/W receptor type 1 (Homo sapiens, UniProt P48145); experiment: GPR7 antagonist potency, late-stage follow-up, cell-based, fluorescence, dose response, set 5 (AID 588566); type: functional
Neuropeptides B/W receptor type 1, sequence (P48145 whole entry): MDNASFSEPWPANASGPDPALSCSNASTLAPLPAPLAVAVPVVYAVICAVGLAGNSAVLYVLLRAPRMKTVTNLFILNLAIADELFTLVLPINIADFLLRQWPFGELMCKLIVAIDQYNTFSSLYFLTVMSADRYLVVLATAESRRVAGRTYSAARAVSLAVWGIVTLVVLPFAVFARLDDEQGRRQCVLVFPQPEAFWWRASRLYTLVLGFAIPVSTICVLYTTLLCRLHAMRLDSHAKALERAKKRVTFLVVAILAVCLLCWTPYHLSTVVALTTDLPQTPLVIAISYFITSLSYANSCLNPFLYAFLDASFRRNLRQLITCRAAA

[8] = Luminescence Cell-Based Dose Response HTS to Identify Inhibitors of 5'UTR Stem-Loop Driven Prion Protein mRNA Translation in H4 Neuroglioblastoma Cells. [Related pubchem assays: 1827 (Project Summary), 1813 (Primary HTS)]; type: functional
[9] = HEK293T cytotoxicity, dose response, cytotoxicity control for miR-122 modulator project, cell-based, inhibitor set, cherry-pick, set 2 (AID 720697); type: functional
[10] = miR-122 activators in hepatoma reporter cells, dose response, cell-based, Huh7 psiCHECK-miR122, Renilla luciferase, cherry-picked (AID 651956); type: functional;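 also: huh7 hepatoma cells stably carrying a psiCHECK-2 miR-122 sensor plasmid; renilla luciferase signal reporting endogenous miR-122 activity after 48 h compound exposure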
[11] = molecular target: T1, Interleukin-8 (Homo sapiens, UniProt P10145); experiment: Dose Response confirmation of uHTS small molecule hits for cystic fibrosis induced NFkb Inhibitors in a PAF-induced IL8 counterscreen.; type: functional; conditions: read-out: IC50_Mean
T1 sequence (P10145 whole entry): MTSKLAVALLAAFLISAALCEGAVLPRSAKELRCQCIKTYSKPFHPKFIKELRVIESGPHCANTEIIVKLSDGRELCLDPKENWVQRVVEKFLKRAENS

[12] = test system: Streptococcus; experiment: Group A Streptococcus viability loss, dose response, counter-screen for streptokinase expression inhibitor project, luminescence, BacTiterGlo (AID 1915); type: functional, organism-based;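 also: potency for reduction of bacterial viability or growth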
[13] = inhibitors of firefly luciferase expression or activity, dose response, H4 neuroglioma cells, luminescence (AID 1990); type: functional, cell-based
[14] = HEK293T cytotoxicity, dose response, cytotoxicity control for miR-122 modulator project, cell-based, activator set, cherry-pick (AID 720690); type: functional;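 also: HEK293T human cells scored for general mammalian cytotoxicity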
[15] = non-specific cell cytotoxicity, dose response, cytotoxicity control for PAX8 inhibitor project, plate reader, dry powder samples (AID 743021); type: functional, cell-based
[16] = molecular target: T1, Interleukin-8; experiment: Dose Response confirmation of uHTS small molecule hits for cystic fibrosis induced NFkb Inhibitors in a TNFa-induced IL8 counterscreen.; type: functional; conditions: read-out: IC50_Mean
[17] = molecular target: T2, Streptokinase A (Streptococcus pyogenes serotype M1, UniProt P10520); experiment: S. pyogenes streptokinase expression inhibitors, potency, dose response, plasminogen activation absorbance, OD405 (AID 1914); type: functional, Streptococcus pyogenes M1 GAS;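 also: secreted streptokinase activity via plasminogen activation per viability signal from cell pellet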
T2 sequence (P10520 whole entry): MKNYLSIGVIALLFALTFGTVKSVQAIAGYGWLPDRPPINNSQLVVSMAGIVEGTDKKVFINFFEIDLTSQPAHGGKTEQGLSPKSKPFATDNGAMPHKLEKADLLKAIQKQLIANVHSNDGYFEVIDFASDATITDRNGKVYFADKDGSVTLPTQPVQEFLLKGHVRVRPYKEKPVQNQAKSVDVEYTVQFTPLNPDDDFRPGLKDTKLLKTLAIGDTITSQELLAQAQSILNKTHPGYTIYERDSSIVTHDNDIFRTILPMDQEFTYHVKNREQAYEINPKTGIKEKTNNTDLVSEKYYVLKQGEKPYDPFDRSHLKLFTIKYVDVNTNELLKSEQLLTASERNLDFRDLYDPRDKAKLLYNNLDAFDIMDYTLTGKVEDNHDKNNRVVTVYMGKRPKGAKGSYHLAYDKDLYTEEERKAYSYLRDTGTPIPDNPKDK

[18] = molecular target: Melanocortin receptor 4 (Homo sapiens, UniProt P32245); type: functional, cell-based;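 also: Cell-based assay with luminescence read-out, confirmatory dose-response testing for agonist activity of biased ligands at MC4R; human U2OS cells with tagged receptor and beta-arrestin; potency of agonists that increase receptor coupling to beta-arrestin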
Melanocortin receptor 4, sequence (P32245 whole entry): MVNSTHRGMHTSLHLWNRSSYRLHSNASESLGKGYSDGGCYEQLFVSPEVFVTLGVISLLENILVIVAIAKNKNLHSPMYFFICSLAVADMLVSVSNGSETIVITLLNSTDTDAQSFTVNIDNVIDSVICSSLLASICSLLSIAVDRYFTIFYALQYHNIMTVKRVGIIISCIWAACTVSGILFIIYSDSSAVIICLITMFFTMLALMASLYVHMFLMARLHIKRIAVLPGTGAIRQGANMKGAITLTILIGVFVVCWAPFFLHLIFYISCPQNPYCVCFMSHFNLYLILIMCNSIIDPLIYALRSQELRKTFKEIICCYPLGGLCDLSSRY

[19] = molecular target: Long-chain-fatty-acid--AMP ligase FadD28 (Mycobacterium tuberculosis, UniProt P9WQ59); experiment: Fluorescence polarization aasay to screen for inhibitors that compete for the binding of FadD28 to a bisubstrate Measured in Biochemical System Using Plate Reader - 2147-01_Inhibitor_Dose_CherryPick_Activity.; type: functional, Mycobacterium tuberculosis H37Rv
Long-chain-fatty-acid--AMP ligase FadD28, sequence (P9WQ59 whole entry): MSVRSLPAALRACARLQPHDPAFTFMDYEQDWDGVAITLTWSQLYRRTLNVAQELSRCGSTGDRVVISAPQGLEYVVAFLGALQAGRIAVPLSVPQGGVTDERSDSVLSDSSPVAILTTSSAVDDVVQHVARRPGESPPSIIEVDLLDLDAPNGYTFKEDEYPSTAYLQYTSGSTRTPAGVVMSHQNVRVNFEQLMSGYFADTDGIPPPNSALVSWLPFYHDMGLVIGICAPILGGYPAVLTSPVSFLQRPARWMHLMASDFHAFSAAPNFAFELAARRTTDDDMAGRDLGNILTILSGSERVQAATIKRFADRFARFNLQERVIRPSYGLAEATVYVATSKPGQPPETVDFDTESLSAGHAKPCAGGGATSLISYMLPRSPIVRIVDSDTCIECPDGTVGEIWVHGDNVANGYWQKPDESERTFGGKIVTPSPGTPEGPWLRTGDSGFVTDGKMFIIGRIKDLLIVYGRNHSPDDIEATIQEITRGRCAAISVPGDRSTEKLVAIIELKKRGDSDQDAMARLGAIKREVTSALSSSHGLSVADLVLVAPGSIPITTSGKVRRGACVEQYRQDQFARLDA

[20] = molecular target: T3, Ubiquitin-conjugating enzyme E2 N (Homo sapiens, UniProt P61088); type: functional;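 also: Dose-response confirmation in a TR-FRET assay detecting UBC13-driven polyubiquitin chain formation, inhibition measured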
T3 sequence (P61088 whole entry): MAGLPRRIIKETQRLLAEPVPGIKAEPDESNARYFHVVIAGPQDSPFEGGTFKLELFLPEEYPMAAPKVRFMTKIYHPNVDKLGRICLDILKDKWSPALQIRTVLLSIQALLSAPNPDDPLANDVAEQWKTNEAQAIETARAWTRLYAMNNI

[21] = molecular target: Paired box protein Pax-8 (Homo sapiens, UniProt Q06710); experiment: inhibitors of PAX8-driven TPO luciferase reporter, dose response, RMG-I cells, cherry-pick (AID 687027); type: functional, cell-based;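 also: luciferase reporter driven by Pax8 target thyroperoxidase promoter measured by SteadyGlo luminescence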
Paired box protein Pax-8, sequence (Q06710 whole entry): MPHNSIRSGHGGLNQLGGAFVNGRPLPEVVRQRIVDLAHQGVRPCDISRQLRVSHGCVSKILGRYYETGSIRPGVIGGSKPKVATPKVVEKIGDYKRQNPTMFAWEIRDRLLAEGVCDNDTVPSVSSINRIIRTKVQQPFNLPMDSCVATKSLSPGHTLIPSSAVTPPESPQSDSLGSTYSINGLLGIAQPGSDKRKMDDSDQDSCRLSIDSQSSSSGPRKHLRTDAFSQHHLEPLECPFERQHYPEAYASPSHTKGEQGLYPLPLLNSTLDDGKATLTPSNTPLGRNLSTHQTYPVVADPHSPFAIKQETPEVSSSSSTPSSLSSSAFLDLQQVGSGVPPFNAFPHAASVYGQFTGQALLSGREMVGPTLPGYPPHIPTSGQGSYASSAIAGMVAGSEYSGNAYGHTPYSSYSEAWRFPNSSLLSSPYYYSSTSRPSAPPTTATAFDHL

[22] = test system: Streptococcus sp. 'group A'; experiment: growth inhibition of control SK(-) GAS strain, dose response, counter-screen for streptokinase expression inhibitor project, luminescence, kanamycin, BacTiterGlo, confirmation (AID 1900); type: functional, organism-based
[23] = test system: INS1; experiment: beta cell apoptosis inhibitors, cytokine rescue, dose response, luminescence, retest (AID 449756); type: functional, cell-based; conditions: Rattus norvegicus;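 also: cell death triggered by IL-1 beta plus TNF-alpha plus IFN-gamma mixture; protective hits raise ATP signal compared with cytokine alone wells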
[24] = inhibitors of SNCA 5'UTR-driven reporter translation, confirmation, H4 neuroglioma cells, luminescence (AID 1988); type: functional, cell-based

Activin receptor type-1, sequence (Q04771 whole entry): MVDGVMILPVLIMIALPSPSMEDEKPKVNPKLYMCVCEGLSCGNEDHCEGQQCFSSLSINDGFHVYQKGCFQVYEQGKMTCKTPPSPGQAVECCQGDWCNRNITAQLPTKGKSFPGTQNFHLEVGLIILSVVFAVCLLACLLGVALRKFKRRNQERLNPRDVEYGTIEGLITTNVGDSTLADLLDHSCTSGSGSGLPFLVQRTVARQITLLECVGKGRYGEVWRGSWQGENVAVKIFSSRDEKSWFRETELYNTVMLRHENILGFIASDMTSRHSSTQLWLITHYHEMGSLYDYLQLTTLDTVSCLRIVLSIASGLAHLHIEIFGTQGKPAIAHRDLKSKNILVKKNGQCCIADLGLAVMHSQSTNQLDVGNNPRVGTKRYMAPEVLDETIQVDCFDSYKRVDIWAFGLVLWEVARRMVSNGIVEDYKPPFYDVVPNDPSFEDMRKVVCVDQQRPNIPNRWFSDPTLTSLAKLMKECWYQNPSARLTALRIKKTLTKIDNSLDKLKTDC

With `Cn1c(=O)n(-c2ccc(C(C)(C)C#N)cc2)c2c3cc(-c4cnc5ccccc5c4)ccc3ncc21` [DACTOLISIB] the Ki [1] was 1.26 µM (active).

With `Cc1cc2nc(N)sc2cc1C` the AC50 [2] was 10 µM (inconclusive).

For `N#Cc1cccc(NC(=O)COC(=O)c2ccccc2C(=O)c2ccc(Cl)c([N+](=O)[O-])c2)c1`, the IC50 [3] was 1.99 µM (active) and the EC50 [4] was 5.27 µM (inactive).

For `O=C(C1CC1)N1CCc2cc(Br)cc(S(=O)(=O)N3CCN(c4ccccn4)CC3)c21`, the IC50 [5] was 1.06 µM (active).

In the case of `O=c1c(Oc2ccc3c(c2)OCO3)c(Cl)cnn1C1c2ccccc2-c2ccccc21`, the IC50 [6] was > 20 µM (inactive) and the IC50 [7] was > 20 µM (inactive).

With `CCN1CCN(Cc2ccc(NC(=O)c3ccc(C)c(NC(=O)C(=O)c4c[nH]c5ccccc45)c3)cc2C(F)(F)F)CC1` the EC50 [8] was 5.83 µM (active), the AC50 [9] was 8.7 µM (active) and the AC50 [10] was 11.3 µM (active). The IC50 [11] was 2.27 µM (active), the EC50 [12] was 7.74 µM (active) and the EC50 [13] was 4.17 µM (inconclusive). For the same molecule, the AC50 [14] was 14.1 µM (active), the AC50 [15] was 68 µM (active) and the IC50 [16] was 39.7 µM (inactive). The EC50 [17] was > 150 µM (not active), the EC50 [18] was > 89.2 µM (inactive) and the AC50 [19] was 12 µM (active). The IC50 [20] was > 20 µM (inactive), the AC50 [21] was 12.1 µM (active) and the EC50 [22] was 4.28 µM (active). For the same molecule, the AC50 [23] was 7.69 µM (active) and the EC50 [24] was 7.65 µM (active).
